Assay results: patent US7521432B2, “Compositions and methods for identifying agents which regulate chromosomal stability, gene activation and aging” (priority 2000, dated 2009)
Like-named read-outs stand apart in the source and are kept apart here.

Assays:
HST2 [1] = molecular target: T1, HST2 (Saccharomyces cerevisiae, UniProt P53686); assay: HST2 steady-state deacetylation reactions, substrate saturation curves (HPLC); assay type: biochemical, yeast
From the text: Materials. [^3H]Acetyl-CoA (1.88 Ci/mmol) and Na-[^3H]-acetate (100,000 cpm/nmol) was from NEN Life Sciences Products. Nicotinamide, ADP-ribose, and nicotinamide adenine dinucleotide (NAD) were purchased from Sigma Chemical Company. Histone H3 peptide, […] and the Lysine 14 acetylated H3 peptide (AcLys-14), corresponding to the 20 amino-terminal residues of human histone H3 was synthesized by the Protein Chemistry Core Lab at Baylor College of Medicine. Histidine tagged full length HST2 was recombinantly expressed and purified from Escherichia coli BL21DE3 bacteria using a T7 polymerase-based expression. […] HST2 eluted at 200 mM imidazole and was determined to be >95% pure by scanning densitometry of commassie-stained SDS-PAGE. […] The peaks of absorbance at 214/260 nm were collected and subjected to mass spectral analysis. [^3H]-acetate was detected by liquid scintillation counting. […]
Typical HST2 steady-state reactions to monitor deacetylation of AcLys-14 H3 peptide or nicotinamide formation were carried out at 37° C. in 50 mM Tris, pH 7.5 buffer. Rates of product formation were determined at various concentrations of AcLys-14 H3 peptide (5-300 μM) and NAD^+ (5-600 μM). During the linear portion of the initial velocity, the reactions were quenched with TFA to 1% and product formation was monitored by the HPLC analysis described above. […]

[2] = test system: poly(ADP-ribosyl)transferases and SIR2 enzymes; settings: poly(ADP-ribosyl)transferases and SIR2 enzymes exhibit similar values; read-out: Km values for NAD^+; cited from earlier work
SIR2 family of enzymes = molecular target: T2, SIR2 family of enzymes (Saccharomyces cerevisiae, UniProt P53686); assay: HST2 steady-state reactions with NGD as alternative substrate to NAD; assay type: biochemical
T2 construct: Histidine tagged full length HST2 was recombinantly expressed and purified from Escherichia coli BL21DE3 bacteria; Histidine tag; made in house; host or cells: Escherichia coli BL21DE3
T2 sequence (P53686 whole entry): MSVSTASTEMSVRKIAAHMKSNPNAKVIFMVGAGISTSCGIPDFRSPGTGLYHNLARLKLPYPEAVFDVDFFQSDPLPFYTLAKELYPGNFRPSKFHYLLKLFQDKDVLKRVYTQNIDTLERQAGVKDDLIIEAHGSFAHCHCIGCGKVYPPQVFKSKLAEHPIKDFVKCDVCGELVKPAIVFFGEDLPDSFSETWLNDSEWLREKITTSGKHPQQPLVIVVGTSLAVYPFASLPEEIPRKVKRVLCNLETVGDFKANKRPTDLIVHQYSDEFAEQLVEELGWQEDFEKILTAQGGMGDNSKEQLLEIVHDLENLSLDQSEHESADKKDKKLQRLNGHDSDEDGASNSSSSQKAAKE
From the text: The details of the reaction conditions are as described in the materials and methods section. This enzymatic process may be used to advantage to generate novel O-acetyl-nucleotide analogs. These analogs may be used in the development of inhibitors for SIR2 and SIR homologs, or for the proteins/enzymes that normally bind/utilize O-acetyl-ADP ribose. More importantly, these enzyme-derived nucleotide analogs may serve as potent therapeutics for cancer and aging, releasing the block for transcriptionally-silenced genes that have been inappropriately silenced during tumorigenesis and aging, as discussed earlier.
Typical HST2 steady-state reactions to monitor deacetylation of AcLys-14 H3 peptide or nicotinamide formation with nicotinamide guanine dinucleotide (NGD) as an alternative substrate to NAD were carried out at various concentrations of AcLys-14 H3 peptide (5-100 μM) and NGD (10-400 μM). During the linear portion of the initial velocity, the reactions were monitored by reverse phase HPLC analysis on a Beckman Ultrasphere column (4.6 mm×15 cm). Samples were injected in 0.05% trifluoroacetic acid (TFA)/H2O for 1 min before a linear gradient of 0-40% acetontrile in 1-41 min.

HST2 [3] = molecular target: T1, HST2; assay: Rapid-reaction single turnover quench-flow analysis; assay type: biochemical, yeast; settings: HST2, excess NAD^+, sub-stoichiometric [^3H]-AcLys14 H3, 22±3° C., pH 7.5, single exponential fit
From the text: FIGS. 5A-5C are a series of graphs showing that acetate is not a primary product of HST2-catalyzed histone/protein deacetylation. H3 peptide was stoichiometrically acetylated on Lys-14 by the histone acetyltransferase P/CAF and using [^3H]-AcCoA. Monoacetylated [^3H]-AcLys-14 H3 peptide was then purified by HPLC (FIG. 5A) and utilized as a substrate in the HST2 deacetylation reactions (FIG. 5B). Upon complete consumption of [^3H]-AcLys-14 H3 by HST2, all of the original [^3H] from H3 peptide was converted to a labeled product that eluted much later than authentic acetate. Conditions: 375 nM HST2, 175 μM NAD^+, 5 μM [^3H]-Lys14 AcH3, 1 mM DTT, for 1 min at 37° C. prior to quenching with TFA to a final concentration of 1%. FIG. 5C: Single turnover rapid quench-flow analysis. […] Quantification of [^3H]-AcLys14 H3 peptide (diamonds) and the [^3H]-acetate-adduct (circles) was accomplished by liquid scintillation counting of these species separated using reverse phase HPLC. […]
P/CAF [^3H]-monoacetylation of H3 peptide. […] Every mass spectrum was recorded as the sum of 20 consecutive spectra, each produced by a single pulse of photons. […] The amount of [^3H]-AcLys14 H3 peptide and [^3H]-O-acetyl ADP ribose was determined by liquid scintillation counting of these species separated on reverse phase HPLC. […]

T1 sequence (P53686 whole entry): as above

## NC(=O)c1ccc[n+]([C@@H]2O[C@H](COP(=O)([O-])OP(=O)(O)OC[C@H]3O[C@@H](n4cnc5c(N)ncnc54)[C@H](O)[C@@H]3O)[C@@H](O)[C@H]2O)c1 [NAD^+, nicotinamide adenine dinucleotide]
HST2 [1]; 37° C., 50 mM Tris pH 7.5, read-out: Km for NAD^+
  Km: 70 µM
[2]
  Km: 50 to 70 µM

## NC(=O)c1ccc[n+]([C@@H]2O[C@H](COP(=O)([O-])OP(=O)(O)OC[C@H]3O[C@@H](n4cnc5c(=O)[nH]c(N)nc54)[C@H](O)[C@@H]3O)[C@@H](O)[C@H]2O)c1 [NGD, nicotinamide guanine dinucleotide]
SIR2 family of enzymes
  ability to serve as substrate, generating O-acetyl-NDP ribose product: can serve as substrates for the SIR2 family of enzymes

## ARTKQTARKSTGG(AcK)APRKQL [AcLys-14 H3, reference compound]
HST2 [1]; estimated, read-out: Km for AcLys-14 H3
  Km: < 0.5 µM
HST2 [3]
  rate constant of AcLys-14 H3 peptide deacetylation (substrate consumption): 2.0 ± 0.1 s⁻¹
